We go through 45 compounds from patent US20250270201A1, “SUBSTITUTED PYRIMIDINYL HYDRAZIDE COMPOUND AND PREPARATION METHOD AND USE THEREOF” (ARIGENX THERAPEUTICS CO., LTD., priority 2022, published 2025).

What is called IC50 is the midpoint of a concentration-inhibition curve.

In this experiment the target is T1, AHR (Homo sapiens, UniProt P35869).
T1 construct: A human liver cancer cell line HepG2 endogenously expressing an AHR protein; host or cells: HepG2 stably transfected with a CYP1A1-promoter firefly luciferase reporter
T1 sequence (P35869 11-848): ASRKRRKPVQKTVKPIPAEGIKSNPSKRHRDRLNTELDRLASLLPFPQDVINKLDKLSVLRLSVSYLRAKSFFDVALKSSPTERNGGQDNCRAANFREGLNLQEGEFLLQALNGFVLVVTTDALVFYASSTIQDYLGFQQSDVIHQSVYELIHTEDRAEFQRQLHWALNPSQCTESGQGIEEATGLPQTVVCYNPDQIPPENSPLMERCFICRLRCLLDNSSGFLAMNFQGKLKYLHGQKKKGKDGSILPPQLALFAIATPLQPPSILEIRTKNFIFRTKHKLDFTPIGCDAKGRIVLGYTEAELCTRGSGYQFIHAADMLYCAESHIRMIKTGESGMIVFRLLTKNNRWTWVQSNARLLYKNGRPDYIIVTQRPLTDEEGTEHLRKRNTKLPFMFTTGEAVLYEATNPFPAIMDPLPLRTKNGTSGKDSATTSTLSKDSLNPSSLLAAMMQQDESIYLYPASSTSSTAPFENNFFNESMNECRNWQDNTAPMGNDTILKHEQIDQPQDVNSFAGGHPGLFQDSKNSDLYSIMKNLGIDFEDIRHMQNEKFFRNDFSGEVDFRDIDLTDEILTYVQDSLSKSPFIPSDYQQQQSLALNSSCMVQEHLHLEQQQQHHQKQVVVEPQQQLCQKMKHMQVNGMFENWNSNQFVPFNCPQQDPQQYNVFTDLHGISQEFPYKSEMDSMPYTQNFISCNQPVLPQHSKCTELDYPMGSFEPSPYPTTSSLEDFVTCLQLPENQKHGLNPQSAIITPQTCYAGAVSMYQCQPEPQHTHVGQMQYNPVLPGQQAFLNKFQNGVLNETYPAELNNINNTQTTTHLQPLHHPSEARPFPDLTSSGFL
Briefly: Antagonistic effect for AHR in HepG2 cells stably transfected with CYP1A1-promoter firefly luciferase reporter. The experiment is classed as cell-based. The following applies: AHR agonist-stimulated, 24 h compound treatment, average of two replicates. An excerpt: A human liver cancer cell line HepG2 endogenously expressing an AHR protein (provided by the Stem Cell Bank of the Chinese Academy of Sciences) was adopted for testing. The expression of a CYP1A1 gene is regulated by an activity of AHR. After being activated, AHR can bind to a sequence called XRE on a CYP1A1 enhancer and initiate the expression of the CYP1A1 gene. To quantitatively determine an impact of a compound on the activity of AHR, a 1,200 bp (−1,143 to +57) regulatory sequence upstream of a promoter of the CYP1A1 gene was synthesized through gene synthesis and then inserted into a plasmid vector carrying firefly luciferase. The plasmid was then linearized through single enzyme cleavage and then transfected into HepG2 cells through lipofectin transfection (Lipofectamine 3000), and transfected HepG2 cells were screened by puromycin to obtain a stably-expressed cell line. When an antagonistic effect of a compound for AHR was tested, the expression of firefly luciferase was initiated by an AHR agonist (such as L-kynurenine, kynurenic acid, indirubin, TCDD, and 2-(1H-indol-3-ylcarbonyl)-4-thiazolecarboxylic acid methyl ester (ITE)), and cells were treated with the compound at different concentrations. Then, the inhibition on the expression of luciferase by the compound was measured.
Stably-transfected HepG2 cells were sub-cultivated in Minimum Eagle's medium (MEM) at 37° C. and 5% carbon dioxide. In the MEM, 1 mM sodium pyruvate, 2 mM GlutaMax, 1×non- essential amino acids, 10% Australian fetal bovine serum, 100 U/mL penicillin-streptomycin, and 5 μg/mL puromycin were supplemented. Before testing, HepG2 cells were inoculated into a 96-well plate at a density of 5-8×10^4 cells/well and cultivated for 24 h to 48 h to allow a cell confluency of about 90% before a drug treatment (puromycin was not added in a medium). Before the drug treatment, AHR agonist-containing 2×compound solutions at different concentrations were prepared with a same medium, and then a half of a cell culture medium in the 96-well plate was replaced with a 2×compound solution. An AHR agonist solution including only DMSO at a corresponding concentration was set as a negative control group, and CH223191 at a corresponding concentration (commercially available) was set as a positive control group. 2 separate replicate tests were set for each compound (including a positive control and a negative control). 24 h after the compound treatment, HepG2 cells were lysed by a Steady-Glo luciferase detection system of Promega, and a luciferase signal was measured by an InfiniteM1000 Pro microplate reader of Tecan.
In terms of data processing, for each replicate test of each compound, inhibition percentages of a compound at different concentrations on an activity of AHR were calculated sequentially with a signal of a well at a compound concentration of 0 as 100% and a cell signal of an untreated agonist as 0. Corresponding IC50 of a compound was calculated with an average value of data of two replicates according to the formula
tirougn non-nnear ning, where y represents an inhibition percentage and x represents a concentration of a corresponding compound.
IC50 for each compound was shown in Table 2, where A indicates IC50≤500 nM, B indicates 500 nM<IC50≤1.0 μM, C indicates 1 μM<IC50≤5.0 μM, and D indicates IC50>5.0 μM.
Background: A reporter such as luciferase makes a cellular process visible.

For the compound `O=C(NN1CCOC[C@H]1CO)c1cc(-c2ccc(Cl)cc2)nc(-c2cccnc2)n1` (stereo in doubt) [Compound 46], the half-maximal inhibitory concentration (IC50) was at most 500 nM.
The value for `CC(C)N(NC(=O)c1cc(-c2ccc(C(F)(F)F)cc2)nc(-c2cccnc2)n1)C(C)CO` (stereo not drawn) [Compound 1, 6-(4-trifluoromethylenyl)-N-(1-hydroxypropyy1-2-yl)-N-isopropyl-2-(pyridin-3-yl)pyrimidin-4-hydrazide] was at most 500 nM; that for `CC(C)N(NC(=O)c1cc(-c2ccc(Cl)cc2)nc(-c2cccnc2)n1)C(C)CO` (stereo not drawn) [Compound 2] was at most 500 nM.
`CC1COCC(C)N1NC(=O)c1cc(-c2ccc(OC(F)(F)F)cc2)nc(-c2cccnc2)n1` (stereo not drawn) [Compound 3]: the IC50 is at most 500 nM.
Under `C[C@H]1COCCN1NC(=O)c1cc(-c2ccc(C(F)(F)F)cc2)nc(-c2cccnc2)n1` [Compound 4] stands at most 500 nM; under `C[C@@H]1COCCN1NC(=O)c1cc(-c2ccc(C(F)(F)F)cc2)nc(-c2cccnc2)n1` [Compound 5], at most 500 nM.
The value for `C[C@H]1COCCN1NC(=O)c1cc(-c2ccc(OC(F)(F)F)cc2)nc(-c2cccnc2)n1` [Compound 6] was at most 500 nM; that for `C[C@@H]1COCCN1NC(=O)c1cc(-c2ccc(OC(F)(F)F)cc2)nc(-c2cccnc2)n1` [Compound 7] was at most 500 nM; that for `C[C@H]1COCCN1NC(=O)c1cc(-c2ccc(Cl)cc2)nc(-c2cccnc2)n1` [Compound 8] was at most 500 nM.
Under `C[C@@H]1COCCN1NC(=O)c1cc(-c2ccc(Cl)cc2)nc(-c2cccnc2)n1` [Compound 9] stands at most 500 nM; under `CC(C)NNC(=O)c1cc(-c2ccc(C(F)(F)F)cc2)nc(-c2cccnc2)n1` [Compound 10], at most 500 nM; under `CC1COCC(=O)N1NC(=O)c1cc(-c2ccc(OC(F)(F)F)cc2)nc(-c2cccnc2)n1` (stereo not drawn) [Compound 11], at most 500 nM.
`CC1COCC(CO)N1NC(=O)c1cc(-c2ccc(C(F)(F)F)cc2)nc(-c2cccnc2)n1` (stereo not drawn) [Compound 12] gave a half-maximal inhibitory concentration (IC50) of at most 500 nM.
With `CC(CO)NNC(=O)c1cc(-c2ccc(C(F)(F)F)cc2)nc(-c2cccnc2)n1` (stereo not drawn) [Compound 13], the IC50 is at most 500 nM.
Under `CC(C)N(NC(=O)c1cc(-c2ccc(OC(F)(F)F)cc2)nc(-c2cccnc2)n1)C(C)CO` (stereo not drawn) [Compound 14] stands at most 500 nM.
Take `C[C@H]1COCCN1NC(=O)c1cc(-c2ccc(OC(F)(F)F)cc2)nc(-c2cnn(C)c2)n1` [Compound 15]: the IC50 was at most 500 nM.
The value for `C[C@@H]1COCCN1NC(=O)c1cc(-c2ccc(OC(F)(F)F)cc2)nc(-c2cnn(C)c2)n1` [Compound 16] was at most 500 nM; that for `CN(CCO)NC(=O)c1cc(-c2ccc(Cl)cc2)nc(-c2cccnc2)n1` [Compound 17] was at most 500 nM; that for `CN(CCO)NC(=O)c1cc(-c2ccc(C(F)(F)F)cc2)nc(-c2cnn(C)c2)n1` [Compound 18] was at most 500 nM.
As to `CC(C)N(CCO)NC(=O)c1cc(-c2ccc(Cl)cc2)nc(-c2cccnc2)n1` [Compound 19], the concentration for half-maximal inhibition (IC50) was at most 500 nM.
The value for `CC(C)N(CCO)NC(=O)c1cc(-c2ccc(C(F)(F)F)cc2)nc(-c2cnn(C)c2)n1` [Compound 20] was at most 500 nM; that for `CCN(CCO)NC(=O)c1cc(-c2ccc(Cl)cc2)nc(-c2cccnc2)n1` [Compound 21] was at most 500 nM.
For the compound `O=C(NN1CCC[C@H]1CO)c1cc(-c2ccc(Cl)cc2)nc(-c2cccnc2)n1` [Compound 22], the IC50 is 500 to 1000 nM.
Compound `O=C(NN1CCOCC1CO)c1cc(-c2ccc(C(F)(F)F)cc2)nc(-c2cccnc2)n1` (stereo not drawn) [Compound 23] displayed an IC50 of at most 500 nM.
`O=C(NN1CCOCC1)c1cc(-c2ccc(C(F)(F)F)cc2)nc(-c2cccnc2)n1` [Compound 24] gave an IC50 of 500 to 1000 nM.
The value for `O=C(NN1CCS(=O)(=O)CC1)c1cc(-c2ccc(C(F)(F)F)cc2)nc(-c2cccnc2)n1` [Compound 25] was 500 to 1000 nM; that for `CC1(C)COCCN1NC(=O)c1cc(-c2ccc(Cl)cc2)nc(-c2cccnc2)n1` [Compound 26] was at most 500 nM; that for `CC1(C)COCCN1NC(=O)c1cc(-c2ccc(C(F)(F)F)cc2)nc(-c2cccnc2)n1` [Compound 27] was at most 500 nM.
With `CC1COCC(=O)N1NC(=O)c1cc(-c2ccc(Cl)cc2)nc(-c2cccnc2)n1` (stereo not drawn) [Compound 28], the half-inhibitory concentration (IC50) was in the range of 500 to 1000 nM.
Turning to `O=C(NN1C(=O)COCC1CO)c1cc(-c2ccc(Cl)cc2)nc(-c2cccnc2)n1` (stereo not drawn) [Compound 29], the IC50 was at most 500 nM.
The value for `CC1(C)COCC(=O)N1NC(=O)c1cc(-c2ccc(C(F)(F)F)cc2)nc(-c2cccnc2)n1` [Compound 30] was at most 500 nM; that for `CC1(C)CN(NC(=O)c2cc(-c3ccc(C(F)(F)F)cc3)nc(-c3cccnc3)n2)CCO1` [Compound 31] was 500 to 1000 nM.
Regarding `CC(O)CN(NC(=O)c1cc(-c2ccc(Cl)cc2)nc(-c2cccnc2)n1)C(C)C` (stereo not drawn) [Compound 32], the concentration for half-maximal inhibition (IC50) is at most 500 nM.
Regarding `CC(=O)N(NC(=O)c1cc(-c2ccc(C(F)(F)F)cc2)nc(-c2cccnc2)n1)c1cnccn1` [Compound 33], the IC50 was at most 500 nM.
`CC(=O)N(NC(=O)c1cc(-c2ccc(C(F)(F)F)cc2)nc(-c2cnn(C)c2)n1)c1cnccn1` [Compound 34] registered an IC50 of at most 500 nM.
As to `Cn1cc(-c2nc(C(=O)NN3CCOC[C@@H]3CO)cc(-c3ccc(Cl)cc3)n2)cn1` [Compound 35], the 50% inhibitory concentration (IC50) is at most 500 nM.
The value for `Cn1cc(-c2nc(C(=O)NN3CCOC[C@H]3CO)cc(-c3ccc(Cl)cc3)n2)cn1` [Compound 36] was at most 500 nM; that for `CC(C)N(NC(=O)c1cc(-c2ccc(C(F)(F)F)nc2)nc(-c2cccc(F)c2)n1)C(C)CO` (stereo not drawn) [Compound 37] was at most 500 nM.
Under `C[C@@H]1COCCN1NC(=O)c1cc(-c2ccc(C(F)(F)F)cc2)nc(-c2cnn(C)c2)n1` [Compound 38] stands 500 to 1000 nM; under `C[C@H]1COCCN1NC(=O)c1cc(-c2ccc(C(F)(F)F)cc2)nc(-c2cnn(C)c2)n1` [Compound 39], at most 500 nM; under `C[C@@H]1COCCN1NC(=O)c1cc(-c2ccc(Cl)cc2)nc(-c2cnn(C)c2)n1` [Compound 40], at most 500 nM.
Under `C[C@H]1COCCN1NC(=O)c1cc(-c2ccc(Cl)cc2)nc(-c2cnn(C)c2)n1` [Compound 41] stands at most 500 nM.
`O=C(NN1CCOC[C@H]1CO)c1cc(-c2ccc(C(F)(F)F)cc2)nc(-c2cccnc2)n1` [Compound 42] returned an IC50 of at most 500 nM.
Under `O=C(NN1CCOC[C@@H]1CO)c1cc(-c2ccc(C(F)(F)F)cc2)nc(-c2cccnc2)n1` [Compound 43] stands at most 500 nM; under `Cn1cc(-c2nc(C(=O)NN3CCOC[C@@H]3CO)cc(-c3ccc(C(F)(F)F)cc3)n2)cn1` [Compound 44], at most 500 nM.
